Key:
[1] = target: SV40 large TAg (T-antigen) (Simian virus 40, UniProt P03070); assay: biochemical; design: species or system SV40 (simian virus 40); conditions: DNA unwinding, 100 nM hexamer, inhibitor preincubation; […]; read-out: IC50 T-antigen
Mcm2-7 [2] = test system: T1, Mcm2-7; assay: Steady-state ATP hydrolysis by Mcm2-7; type: biochemical, Saccharomyces cerevisiae; conditions: 1 mM compound, 100 nM hexamer
T1 construct: made in house; host or cells: baculovirus-infected insect cells

Mcm467 [3] = target: T2, Mcm467 (Saccharomyces cerevisiae, UniProt P30665+P38132+P53091); assay: ssDNA double filter-binding assay, Mcm467; conditions: 1 mM compound, 150 nM helicase
T2 construct: made in house; host or cells: baculovirus-infected insect cells

Mcm2-7 [4] = target: T1, Mcm2-7; assay: Mcm2-7 helicase (DNA unwinding) assay; type: biochemical, Saccharomyces cerevisiae; conditions: DNA unwinding, 100 nM hexamer, inhibitor preincubation; value (95% CI); read-out: IC50 Mcm2-7
Mcm2-7 [5] = test system: T1, Mcm2-7; assay: ssDNA double filter-binding assay, Mcm2-7; design: species or system Saccharomyces cerevisiae; conditions: 1 mM compound, 150 nM helicase
Mcm467 [6] = target: T2, Mcm467; assay: Steady-state ATP hydrolysis by Mcm467; type: biochemical; conditions: 1 mM compound, 100 nM hexamer
Mcm467 [7] = target: T2, Mcm467; assay: Mcm467 helicase (DNA unwinding) assay; type: biochemical; conditions: DNA unwinding, 100 nM hexamer, inhibitor preincubation; value (95% CI); read-out: IC50 Mcm467
Wheat Germ Topo I = assay: Topo I activity inhibition assay; conditions: 1 mM inhibitor added together with Topo I (Figure 3D)
pUC19 = assay: DNA intercalation assay (Topo I-relaxed plasmid); type: biochemical; conditions: 1 mM inhibitor added after plasmid relaxation (Figure 3C)
Description: To examine this model, we tested our inhibitors in a standard topoisomerase assay. The rationale of this assay is that intercalating compounds will introduce supercoils into a fully relaxed plasmid. Topo I will remove these introduced supercoils, but after quenching and gel electrophoresis the intercalator will diffuse away and produce a detectable compensatory supercoiling increase.

SV40 large TAg = target: T3, SV40 large TAg (Simian virus 40, UniProt P03070); assay: Steady-state ATP hydrolysis by TAg; type: biochemical, SV40 (simian virus 40); conditions: 1 mM compound, 100 nM hexamer
T3 construct: made in house

[8] = test system: S. cerevisiae ∆erg6 (UPY675); assay: Yeast growth inhibition, 96-well assay, ∆erg6 strain; type: cell-based, Saccharomyces cerevisiae; conditions: Saccharomyces cerevisiae, 24 h, read-out: IC50 Yeast
Solubility in assay = conditions: helicase assay conditions

T2 sequence (P30665 whole entry): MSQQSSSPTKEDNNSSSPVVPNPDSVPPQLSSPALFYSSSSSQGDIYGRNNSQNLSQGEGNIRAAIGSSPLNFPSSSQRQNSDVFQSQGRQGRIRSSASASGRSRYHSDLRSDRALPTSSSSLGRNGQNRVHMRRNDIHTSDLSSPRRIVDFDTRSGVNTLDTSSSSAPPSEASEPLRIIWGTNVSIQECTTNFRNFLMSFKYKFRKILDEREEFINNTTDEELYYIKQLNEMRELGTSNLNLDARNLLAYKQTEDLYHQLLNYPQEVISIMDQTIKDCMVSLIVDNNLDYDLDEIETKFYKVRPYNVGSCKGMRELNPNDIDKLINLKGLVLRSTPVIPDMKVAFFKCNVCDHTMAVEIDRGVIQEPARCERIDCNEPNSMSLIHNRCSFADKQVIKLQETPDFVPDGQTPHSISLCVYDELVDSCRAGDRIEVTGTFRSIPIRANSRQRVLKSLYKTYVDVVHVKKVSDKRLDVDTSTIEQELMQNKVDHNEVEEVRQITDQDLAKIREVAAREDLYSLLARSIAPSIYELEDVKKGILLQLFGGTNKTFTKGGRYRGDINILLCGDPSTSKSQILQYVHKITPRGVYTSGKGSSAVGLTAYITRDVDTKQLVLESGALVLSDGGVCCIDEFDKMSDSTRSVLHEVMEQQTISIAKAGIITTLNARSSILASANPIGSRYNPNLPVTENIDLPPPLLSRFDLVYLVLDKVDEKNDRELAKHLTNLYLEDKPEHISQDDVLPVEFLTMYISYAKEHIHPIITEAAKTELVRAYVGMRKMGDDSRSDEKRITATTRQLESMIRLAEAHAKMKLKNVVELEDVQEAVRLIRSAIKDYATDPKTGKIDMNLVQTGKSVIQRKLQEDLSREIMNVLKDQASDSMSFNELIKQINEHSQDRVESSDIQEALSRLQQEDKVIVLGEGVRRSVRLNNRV
T2 sequence (P53091 whole entry): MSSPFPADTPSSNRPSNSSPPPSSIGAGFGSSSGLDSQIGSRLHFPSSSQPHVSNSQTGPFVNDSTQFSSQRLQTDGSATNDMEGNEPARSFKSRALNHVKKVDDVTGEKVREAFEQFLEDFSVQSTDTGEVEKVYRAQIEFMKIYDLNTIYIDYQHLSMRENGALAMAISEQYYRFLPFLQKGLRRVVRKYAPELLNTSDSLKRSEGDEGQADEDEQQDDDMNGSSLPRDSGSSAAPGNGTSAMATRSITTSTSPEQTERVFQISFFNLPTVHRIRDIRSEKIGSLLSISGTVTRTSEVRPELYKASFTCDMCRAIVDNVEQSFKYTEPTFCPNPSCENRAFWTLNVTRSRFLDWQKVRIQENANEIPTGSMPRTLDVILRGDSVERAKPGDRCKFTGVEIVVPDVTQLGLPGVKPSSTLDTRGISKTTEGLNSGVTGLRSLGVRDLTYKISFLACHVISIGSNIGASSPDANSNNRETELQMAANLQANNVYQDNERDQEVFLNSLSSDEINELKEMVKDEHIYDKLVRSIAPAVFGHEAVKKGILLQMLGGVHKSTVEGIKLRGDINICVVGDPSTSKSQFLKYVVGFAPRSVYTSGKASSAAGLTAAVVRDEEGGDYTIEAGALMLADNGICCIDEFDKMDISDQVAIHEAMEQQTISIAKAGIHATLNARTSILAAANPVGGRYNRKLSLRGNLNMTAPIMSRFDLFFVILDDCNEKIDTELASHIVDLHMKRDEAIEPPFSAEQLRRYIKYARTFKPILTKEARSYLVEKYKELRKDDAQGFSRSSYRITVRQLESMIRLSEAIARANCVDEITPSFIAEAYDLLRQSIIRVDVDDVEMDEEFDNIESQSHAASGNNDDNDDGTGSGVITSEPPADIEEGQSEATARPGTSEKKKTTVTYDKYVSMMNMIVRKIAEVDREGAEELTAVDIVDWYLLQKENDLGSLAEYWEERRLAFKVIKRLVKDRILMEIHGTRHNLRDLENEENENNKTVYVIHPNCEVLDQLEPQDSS
T2 sequence (P38132 whole entry): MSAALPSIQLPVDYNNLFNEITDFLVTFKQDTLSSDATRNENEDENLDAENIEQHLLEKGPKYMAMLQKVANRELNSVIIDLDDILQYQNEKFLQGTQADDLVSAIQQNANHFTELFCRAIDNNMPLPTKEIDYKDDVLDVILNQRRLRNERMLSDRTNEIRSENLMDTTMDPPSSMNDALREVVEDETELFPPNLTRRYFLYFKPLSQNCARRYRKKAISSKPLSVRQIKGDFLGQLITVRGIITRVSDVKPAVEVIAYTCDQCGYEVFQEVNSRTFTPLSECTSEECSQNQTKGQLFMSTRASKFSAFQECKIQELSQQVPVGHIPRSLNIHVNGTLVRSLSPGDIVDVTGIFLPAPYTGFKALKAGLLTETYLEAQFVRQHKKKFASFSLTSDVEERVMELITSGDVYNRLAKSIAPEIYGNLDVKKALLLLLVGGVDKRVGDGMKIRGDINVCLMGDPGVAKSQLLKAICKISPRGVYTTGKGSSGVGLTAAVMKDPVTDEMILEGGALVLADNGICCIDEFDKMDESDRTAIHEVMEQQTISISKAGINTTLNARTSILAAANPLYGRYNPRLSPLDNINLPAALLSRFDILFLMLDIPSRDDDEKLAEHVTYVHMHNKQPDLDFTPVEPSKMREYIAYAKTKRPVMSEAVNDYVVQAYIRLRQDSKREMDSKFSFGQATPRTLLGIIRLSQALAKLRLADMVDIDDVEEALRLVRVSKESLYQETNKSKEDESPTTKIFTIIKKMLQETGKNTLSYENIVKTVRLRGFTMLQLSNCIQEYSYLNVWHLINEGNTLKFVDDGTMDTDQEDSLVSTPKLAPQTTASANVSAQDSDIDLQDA
T3 sequence (P03070 whole entry): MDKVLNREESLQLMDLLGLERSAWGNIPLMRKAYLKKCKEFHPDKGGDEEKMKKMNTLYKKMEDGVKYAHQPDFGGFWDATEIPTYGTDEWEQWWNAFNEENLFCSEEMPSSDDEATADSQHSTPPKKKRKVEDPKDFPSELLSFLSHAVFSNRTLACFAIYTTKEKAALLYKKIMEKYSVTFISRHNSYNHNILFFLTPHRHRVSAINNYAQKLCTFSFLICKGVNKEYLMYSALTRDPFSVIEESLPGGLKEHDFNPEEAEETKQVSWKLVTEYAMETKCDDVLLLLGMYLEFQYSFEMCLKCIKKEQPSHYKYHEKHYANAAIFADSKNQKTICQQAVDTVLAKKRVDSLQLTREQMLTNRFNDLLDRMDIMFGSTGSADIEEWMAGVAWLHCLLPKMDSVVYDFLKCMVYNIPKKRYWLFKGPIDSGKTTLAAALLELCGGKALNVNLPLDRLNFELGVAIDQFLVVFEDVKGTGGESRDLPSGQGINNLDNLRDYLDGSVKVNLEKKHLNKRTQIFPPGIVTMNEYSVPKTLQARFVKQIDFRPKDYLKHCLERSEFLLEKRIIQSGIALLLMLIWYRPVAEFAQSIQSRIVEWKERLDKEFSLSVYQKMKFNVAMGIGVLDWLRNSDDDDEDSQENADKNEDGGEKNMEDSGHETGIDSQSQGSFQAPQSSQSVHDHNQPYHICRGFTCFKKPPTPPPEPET
SV40 large TAg (T-antigen), sequence (P03070 whole entry, looked up): as the sequence (P03070 whole entry) above

## CC1=C(C(=O)OCc2ccccc2)C(c2ccc(-c3ccccc3)cc2)NC(=O)N1CCCCCC(=O)O (stereo not shown) [MAL2-11b, reference compound]
[1]
  IC50: 192 µM
Mcm2-7 [2]
  effect on ATP hydrolysis of Mcm2-7: completely inhibits
Mcm467 [3]
  effect on ssDNA binding of Mcm467: inhibit
Mcm2-7 [4]
  IC50: 96 µM
Mcm2-7 [5]
  effect on ssDNA binding of Mcm2-7: inhibit
Mcm467 [6]
  effect on ATP hydrolysis of Mcm467: completely inhibits
Mcm467 [7]
  IC50: 112 µM
Wheat Germ Topo I
  Topo I inhibition: Topo I inhibitor
pUC19
  DNA intercalation: little or no intercalation
SV40 large TAg
  effect on ATP hydrolysis of TAg: completely inhibits

## CCn1cc(C(=O)O)c(=O)c2c(N)c(F)c(N3CCNCC3)c(F)c21 [compound 271327]
[1]
  IC50: > 1000 µM
Mcm2-7 [2]
  effect on ATP hydrolysis of Mcm2-7: essentially no inhibition
Mcm2-7 [4]
  IC50: 361 µM
Mcm467 [6]
  effect on ATP hydrolysis of Mcm467: essentially no inhibition
Mcm467 [7]
  IC50: 460 µM
[8]
  IC50: 700 µM
pUC19
  DNA intercalation: little or no intercalation
Solubility in assay
  solubility: limited solubility
SV40 large TAg
  effect on ATP hydrolysis of TAg: essentially no inhibition
